Assay results: ChEMBL document CHEMBL1201862, “PubChem BioAssay data set” (2004)
Several values for one entry are separate records, joined by “and”; a condition that tells them apart may be missing. Identical values can stand only once. Counter-ions that a name gives are not always drawn.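 Five concentrations, 48 hours, 96-well plates. GI50: concentration for 50% inhibition of growth.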 Activity calls are given as the source filed them. Rule as the data show it: active = GI50 up to about 1.1 µM and inactive = higher.

Key:
Assay in all cases: NCI-60 cell line screen, 48 h
A549 = test system: A549
BT-549 = test system: BT-549
HOP-62 = test system: HOP-62
SNB-19 = test system: SNB-19
HT-29 = test system: HT-29
SK-MEL-2 = test system: SK-MEL-2
ACHN = test system: ACHN
HCT-15 = test system: HCT-15
NCI-H460 = test system: NCI-H460
RXF 393 = test system: RXF 393
RPMI-8226 = test system: RPMI-8226
SNB-75 = test system: SNB-75
SN12C = test system: SN12C
KM12 = test system: KM12
HCC 2998 = test system: HCC 2998
MDA-MB-231 = test system: MDA-MB-231
MDA-N = test system: MDA-N
SR = test system: SR

SMILES | GI50 (A549) | GI50 (BT-549) | GI50 (HOP-62) | GI50 (SNB-19) | GI50 (HT-29) | GI50 (SK-MEL-2) | GI50 (ACHN) | GI50 (HCT-15) | GI50 (NCI-H460) | GI50 (RXF 393) | GI50 (RPMI-8226) | GI50 (SNB-75) | GI50 (SN12C) | GI50 (KM12) | GI50 (HCC 2998) | GI50 (MDA-MB-231) | GI50 (MDA-N) | GI50 (SR)
O=C(O)C12C3CCC(O3)C1(C(=O)O)C1CCC2O1 (stereo unspecified) | > 100 µM (inactive) | > 100 µM (inactive) | > 100 µM (inactive) | > 100 µM (inactive) | > 100 µM (inactive) | > 100 µM (inactive) | > 100 µM (inactive) | > 100 µM | > 100 µM (inactive) | > 100 µM (inactive) and 53.6 µM (inactive) | > 100 µM (inactive) | > 100 µM (inactive) | > 100 µM (inactive) | > 100 µM (inactive) | > 100 µM (inactive) |  |  | 
C1=CC2=CC=CC3c4nc5ccc6ccccc6c5nc4C(=C1)C23 (stereo unspecified) | > 100 µM (inactive) |  | > 100 µM (inactive) | > 100 µM (inactive) | > 100 µM (inactive) | > 100 µM (inactive) | > 100 µM (inactive) | > 100 µM | > 100 µM (inactive) | > 100 µM (inactive) | > 100 µM (inactive) | > 100 µM (inactive) | > 100 µM (inactive) | > 100 µM (inactive) | > 100 µM (inactive) | > 100 µM (inactive) | > 100 µM (inactive) | > 100 µM (inactive)
CCCCCCCCCCCCOCC(COP(=O)(O)OCCN=[N+]=[N-])OC(=O)CCCCCCCCCCC (stereo unspecified) | > 100 µM (inactive) |  | > 100 µM (inactive) | > 100 µM (inactive) | > 100 µM (inactive) | > 100 µM (inactive) | > 100 µM (inactive) | > 100 µM | > 100 µM (inactive) | > 100 µM (inactive) | > 100 µM (inactive) |  | > 100 µM (inactive) | > 100 µM (inactive) | > 100 µM (inactive) | > 100 µM (inactive) | > 100 µM (inactive) | 
N#CC(=C1CCN(CCCC(=O)c2ccc(F)cc2)CC1)c1ccccc1 | > 100 µM (inactive) | > 100 µM (inactive) |  | > 100 µM (inactive) | 62.2 µM (inactive) | > 100 µM (inactive) | > 100 µM (inactive) | > 100 µM | > 100 µM (inactive) | > 100 µM (inactive) | > 100 µM (inactive) | > 100 µM (inactive) | > 100 µM (inactive) | > 100 µM (inactive) | > 100 µM (inactive) | > 100 µM (inactive) |  | > 100 µM (inactive)
O=C1CN(c2ccccc2)C(=O)CN1CCN1CC(=O)N(c2ccccc2)CC1=O | > 100 µM (inactive) | > 100 µM (inactive) | > 100 µM (inactive) | > 100 µM (inactive) | > 100 µM (inactive) |  | > 100 µM (inactive) | > 100 µM | > 100 µM (inactive) | > 100 µM (inactive) | > 100 µM (inactive) | > 100 µM (inactive) | > 100 µM (inactive) | > 100 µM (inactive) | > 100 µM (inactive) |  | > 100 µM (inactive) | > 100 µM (inactive)
COc1cc(C2C(Cl)C(=O)N2NC(=O)c2ccc(NC(C)=O)cc2OC)ccc1O (stereo unspecified) | 32.1 µM (inactive) | 17.3 µM (inactive) |  | 17.4 µM (inactive) | 15.1 µM (inactive) | 14.5 µM (inactive) | 23.3 µM (inactive) | 19.5 µM |  | 20.6 µM (inactive) | 1.94 µM (inactive) | 29.4 µM (inactive) | 17.9 µM (inactive) | 20.4 µM (inactive) |  |  | 20 µM (inactive) | 7.29 µM (inactive)
OCC1OC(c2ccccc2)CC1O (stereo unspecified) | > 100 µM (inactive) |  |  | > 100 µM (inactive) | > 100 µM (inactive) | > 100 µM (inactive) | > 100 µM (inactive) | > 100 µM | > 100 µM (inactive) | > 100 µM (inactive) |  | > 100 µM (inactive) | > 100 µM (inactive) | > 100 µM (inactive) |  | > 100 µM (inactive) |  | > 100 µM (inactive)
COc1cc(O)c2c(c1)OCC1(Cc3cc(OC)c(OC)cc31)C2=O (stereo unspecified) | 19.5 µM (inactive) |  | > 100 µM (inactive) | > 100 µM (inactive) | > 100 µM (inactive) | > 100 µM (inactive) | > 100 µM (inactive) | > 100 µM | > 100 µM (inactive) | > 100 µM (inactive) | 37.9 µM (inactive) | 78.3 µM (inactive) | > 100 µM (inactive) | > 100 µM (inactive) |  | 83 µM (inactive) | 49.9 µM (inactive) | 68.7 µM (inactive)
CN(CCCCCl)P(=O)(OCc1ccc([N+](=O)[O-])o1)OCC1OC(n2ccc(N)nc2=O)C(O)C1O (stereo unspecified) | 0.303 µM (active) |  | 10.6 µM (inactive) | 3.21 µM (inactive) | 4.61 µM (inactive) | 9.79 µM (inactive) | 11.7 µM (inactive) | 41.4 µM | 2.29 µM (inactive) | 6.21 µM (inactive) | 1.57 µM (inactive) | 0.571 µM (active) | 3.52 µM (inactive) | 3.24 µM (inactive) | 3.37 µM (inactive) | 18.9 µM (inactive) | 1.82 µM (inactive) | 5.87 µM (inactive)
CC(=O)c1ccc(/N=N/c2ccc3nonc3c2N)cc1 | > 100 µM (inactive) |  | > 100 µM (inactive) | > 100 µM (inactive) | > 100 µM (inactive) | > 100 µM (inactive) | > 100 µM (inactive) | > 100 µM | > 100 µM (inactive) | > 100 µM (inactive) | > 100 µM (inactive) | 94.4 µM (inactive) | > 100 µM (inactive) | > 100 µM (inactive) | > 100 µM (inactive) | > 100 µM (inactive) | > 100 µM (inactive) | > 100 µM (inactive)
CCNc1ncnc2c1nnn2CC | > 100 µM (inactive) |  | > 100 µM (inactive) | > 100 µM (inactive) | > 100 µM (inactive) | > 100 µM (inactive) | > 100 µM (inactive) | > 100 µM |  | > 100 µM (inactive) | > 100 µM (inactive) | 77.1 µM (inactive) | > 100 µM (inactive) | > 100 µM (inactive) | > 100 µM (inactive) | > 100 µM (inactive) | > 100 µM (inactive) | 
C=C1C(=O)C23CC1CCC2C12CO[C@H](O)[C@H]1C(C)(C)[C@H](OC(C)=O)C[C@H]2OC3=O (stereo partly specified) | > 100 µM (inactive) | 9.48 µM (inactive) |  | > 100 µM (inactive) | 13.4 µM (inactive) | 15.3 µM (inactive) | 15.9 µM (inactive) | 14.6 µM | 34.6 µM (inactive) |  | 76.7 µM (inactive) | 46.2 µM (inactive) | 21.1 µM (inactive) | 23 µM (inactive) | 22.6 µM (inactive) | 19.8 µM (inactive) | 16.1 µM (inactive) | 
NCCCCNCCCN [SPERMIDINE TRIHYDROCHLORIDE] | > 100 µM (inactive) | > 100 µM (inactive) | > 100 µM (inactive) | > 100 µM (inactive) | > 100 µM (inactive) | > 100 µM (inactive) | > 100 µM (inactive) | > 100 µM | > 100 µM (inactive) | > 100 µM (inactive) |  | > 100 µM (inactive) |  | > 100 µM (inactive) | > 100 µM (inactive) | > 100 µM (inactive) |  | > 100 µM (inactive)
